In data set [1] the test system is SARS-CoV-2. In words: SARS-CoV-2 antiviral assay in Vero E6 cells. It is filed as cell-based. The note with it: Severe acute respiratory syndrome coronavirus 2, Vero C1008.
For data set [2], the system named is SARS-CoV-2. The data set can be described thus: SARS-CoV-2 antiviral assay in Caco2-hACE2 cells. It is filed as cell-based. The note with it: Severe acute respiratory syndrome coronavirus 2.
Data set [3] concerns SARS-CoV-2. The data set can be described thus: SARS-CoV-2 antiviral assay in Huh7-ACE2 cells. It is filed as cell-based. To be noted: Severe acute respiratory syndrome coronavirus 2.
In another data set the target is SARS-CoV-2 PL^pro (Severe acute respiratory syndrome coronavirus 2, UniProt P0DTD1). In words: biochemical. In kind it is biochemical.
A short description of data set [4]: Cytotoxicity in Vero E6 cells. The note with it: African green monkey.
A further data set addresses T1, M^pro (Severe acute respiratory syndrome coronavirus 2, UniProt P0DTD1).
T1 construct: the main protease (M^pro)
The data set can be described thus: biochemical.

The nature of data set [5]: Cytotoxicity in Calu-3 cells. To be noted: human.
The nature of a further data set: in vitro. To be noted: African green monkey.
The mark [6] stands for this setting: FRET assay, read-out: SARS-CoV-2 PL^pro IC50.

Read-outs that look alike come from different tables or passages of the source.

What is called EC50 is the concentration at which the effect is half-maximal. For `Cc1ccc(N)cc1C(=O)N[C@H](C)c1cccc2ccccc12` [GRL0617, reference compound], the EC50 with SARS-CoV-2 [1] amounted to 74.4 µM; with SARS-CoV-2 [2], 25.1 µM; in the data set with SARS-CoV-2 [3] it was 20.2 µM.

As a reminder, the IC50 is the concentration at which inhibition is half-maximal. Take `C[C@H](c1ccc(Cl)cc1)N(C)Cc1cc(O)ccc1Cl` [Jun9-13-4]: the IC50 on SARS-CoV-2 PL^pro is > 20 µM.

With `CCN(Cc1cc(O)ccc1Cl)c1cccc(C)c1C` [Jun9-13-5], the IC50 against SARS-CoV-2 PL^pro was > 20 µM.

`CC(C1CCCCC1)N(C)Cc1cc(O)ccc1Cl` (stereo not shown) [Jun9-13-6]: at SARS-CoV-2 PL^pro, the IC50 was > 20 µM.

For the compound `Cc1ccc(C(C)N(C)Cc2cc(O)ccc2Cl)cc1` (stereo not shown) [Jun9-13-8], on SARS-CoV-2 PL^pro (setting [6]), the IC50 amounted to 71.8 µM.

Regarding `COc1ccc(Cl)c(CN(C)[C@H](C)c2ccccc2C)c1` [Jun9-25-4], at SARS-CoV-2 PL^pro (setting [6]), the IC50 was found to be 49.3 µM.

Turning to `Cc1ccccc1[C@@H](C)N(C)Cc1cc(O)ccc1Cl` [Jun9-25-5], in the data set on SARS-CoV-2 [3], the EC50 turned out to be 3.1 µM. The same compound registered a CC50 in data set [4] of 38.8 µM.

Turning to `Cc1ccccc1CN(C)Cc1cc(O)ccc1Cl` [Jun9-26-2], on SARS-CoV-2 PL^pro, the IC50 was > 20 µM.

In the case of `COc1ccc(Cl)c(CN(C)[C@H](C)c2cccc3ccccc23)c1` [Jun9-26-5], the IC50 on SARS-CoV-2 PL^pro is > 20 µM.

On to `C[C@H](c1cccc2ccccc12)N(C)Cc1cc(O)ccc1Cl` [Jun9-28-6], for which the EC50 in the data set on SARS-CoV-2 [3] is 5.17 µM. The IC50 is 2.66 µM at SARS-CoV-2 PL^pro (setting [6]) and > 20 µM against M^pro.

As for `CC1CCCCC1N(C)Cc1cc(O)ccc1Cl` (stereo not shown) [Jun9-29-1], the IC50 at SARS-CoV-2 PL^pro is > 20 µM.

For the compound `CC(C)c1ccccc1N(C)Cc1cc(O)ccc1Cl` [Jun9-29-3], on SARS-CoV-2 PL^pro, the IC50 is > 20 µM.

As for `CN(Cc1cc(O)ccc1Cl)Cc1c(Cl)cccc1Cl` [Jun9-29-4], on SARS-CoV-2 PL^pro, the IC50 was > 20 µM.

Consider `CC(C1CC(F)CCC1F)N(C)Cc1cc(O)ccc1Cl` (stereo not shown) [Jun9-29-5], for which, at SARS-CoV-2 PL^pro (setting [6]), the IC50 was > 20 µM.

For the compound `CC(c1cccc(O)c1)N(C)Cc1cc(O)ccc1Cl` (stereo not shown) [Jun9-29-6], the IC50 at SARS-CoV-2 PL^pro (setting [6]) amounted to 26.9 µM.

Regarding `CC(c1ccccc1F)N(C)Cc1cc(O)ccc1Cl` (stereo not shown) [Jun9-29-7], at SARS-CoV-2 PL^pro (setting [6]), the IC50 is 42.9 µM.

Regarding `C[C@H](c1cccc2ccccc12)N(C)Cc1ccc(O)cc1` [Jun9-44-3], the EC50 in the data set with SARS-CoV-2 [1] was determined as 11.2 µM; with SARS-CoV-2 [2] it was 8.32 µM. The compound further had a CC50 in data set [5] of 27.7 µM. In addition, the “SARS-CoV-2 PL^pro inhibition, in words” value on SARS-CoV-2 PL^pro is on record as “highly potent”.

In the case of `Oc1ccc(Cl)c(CN2CCc3ccccc3C2)c1` [Jun9-44-5], the IC50 on SARS-CoV-2 PL^pro is > 20 µM.

For the compound `C[C@@H](NC(=O)c1cc(O)ccc1Cl)c1cccc2ccccc12` [Jun9-47-2], the IC50 on SARS-CoV-2 PL^pro (setting [6]) is 6.72 µM; against M^pro, > 20 µM.

`Cc1ccc(O)cc1C(=O)N[C@H](C)c1cccc2ccccc12` [Jun9-47-3]: the half-inhibitory concentration (IC50) was 2.44 µM on SARS-CoV-2 PL^pro (setting [6]) and > 20 µM at M^pro.

Consider `C[C@H](c1cccc2ccccc12)N(C)Cc1cc(N)ccc1Cl` [Jun9-53-1], for which the values for the IC50 on SARS-CoV-2 PL^pro (setting [6]) and on M^pro were 2.71 µM and > 20 µM, respectively.

With `Cc1ccc(N)cc1CN(C)[C@H](C)c1cccc2ccccc12` [Jun9-53-2], the EC50 with SARS-CoV-2 [1] worked out at 25.2 µM; with SARS-CoV-2 [2] it was 8.89 µM. Also, on SARS-CoV-2 PL^pro, the “SARS-CoV-2 PL^pro inhibition, in words” value is listed as “highly potent”. Further, on M^pro, the IC50 is > 20 µM. Moreover, in data set [4], the CC50 came out at 25.7 µM.

As for `C[C@H](c1cccc2ccccc12)N(C)Cc1ccnc(O)c1` [Jun9-84-6], the IC50 on SARS-CoV-2 PL^pro is > 20 µM.

Turning to `C[C@H](c1cccc2ccccc12)N(C)Cc1cnc(N)cc1N` [Jun9-84-7], the IC50 at SARS-CoV-2 PL^pro (setting [6]) was determined as 5.62 µM.

`C[C@H](c1cccc2ccccc12)N(C)Cc1ccc(OCC(N)=O)nc1` [Jun9-85-4]: the IC50 on SARS-CoV-2 PL^pro (setting [6]) stood at 2.84 µM.

Regarding `C[C@H](c1cccc2ccccc12)N(C)Cc1ccc2c(c1)COC2=O` [Jun9-85-7], the IC50 on SARS-CoV-2 PL^pro (setting [6]) amounted to 6.41 µM.

Regarding `C[C@H](c1cccc2ccccc12)N(C)Cc1ccc2cccc(O)c2c1` [Jun9-85-8], the IC50 on SARS-CoV-2 PL^pro (setting [6]) was > 20 µM.

Regarding `C[C@H](c1cccc2ccccc12)N(C)Cc1ccc2c(c1)NC(=O)CO2` [Jun9-86-3], at SARS-CoV-2 PL^pro (setting [6]), the IC50 is 7.01 µM.

On to `Cc1cc(O)cc(C)c1CN(C)[C@H](C)c1cccc2ccccc12` [Jun9-86-6], for which, on SARS-CoV-2 PL^pro (setting [6]), the IC50 was found to be 0.37 µM.

Regarding `C[C@H](c1cccc2ccccc12)N(C)Cc1n[nH]c2cccc(O)c12` [Jun9-86-7], the IC50 at SARS-CoV-2 PL^pro was > 20 µM.

Turning to `Cc1cc(O)ccc1CN(C)[C@H](C)c1cccc2ccccc12` [Jun9-87-2], the CC50 in “in vitro” amounted to 61 µM. On SARS-CoV-2 PL^pro, the “SARS-CoV-2 PL^pro inhibition, in words” value is reported as “highly potent”.

In the data set “in vitro”, `C[C@H](c1cccc2ccccc12)N(C)Cc1ccc(O)cc1Cl` [Jun9-87-3] registered a CC50 of 26 µM. Also, the “SARS-CoV-2 PL^pro inhibition, in words” value on SARS-CoV-2 PL^pro was “highly potent”.

As to `Cc1ccc(S(N)(=O)=O)cc1C(=O)N(C)C(C)c1ccc(Cl)c2ccccc12` (stereo not shown) [Jun 10-69-2], the “SARS-CoV-2 PL^pro inhibition, in words” value at SARS-CoV-2 PL^pro is recorded as “highly potent”.

For the compound `C[C@H](c1cccc2ccccc12)N(C)C(=O)c1nccnc1N` [ZX-129], the IC50 on SARS-CoV-2 PL^pro (setting [6]) and at M^pro was > 20 µM each time.

For `C[C@H](c1cccc2ccccc12)N(C)Cc1cccnc1` [ZX-136-2], the IC50 on SARS-CoV-2 PL^pro (setting [6]) came out at 9.29 µM.

In the case of `C[C@H](c1cccc2ccccc12)N(C)Cc1cnn(C)c1` [ZX-136-3], the IC50 at SARS-CoV-2 PL^pro (setting [6]) is 10.1 µM.

Take `C[C@H](c1cccc2ccccc12)N(C)Cc1ccc(-n2cccc2)cc1` [ZX-136-4]: the IC50 on SARS-CoV-2 PL^pro was > 20 µM.

On to `C[C@H](c1cccc2ccccc12)N(C)Cc1cncn1C` [ZX-136-5], for which the IC50 on SARS-CoV-2 PL^pro (setting [6]) was 8.32 µM.

On to `C[C@H](c1cccc2ccccc12)N(C)Cc1cnccn1` [ZX-136-9], for which the IC50 against SARS-CoV-2 PL^pro is > 20 µM.

Take `C[C@H](c1cccc2ccccc12)N(C)Cc1cnc2c(O)cccn12` [ZX-136-10]: the IC50 at SARS-CoV-2 PL^pro (setting [6]) was 14.3 µM.

The values are drawn from patent US20240325321A1, “COMPOSITIONS AND METHODS FOR INHIBITING PLpro PROTEASE ACTIVITY AND FOR PREVENTING AND TREATING SARS-CoV-2 INFECTION” (Arizona Board of Regents on Behalf of the University of …, priority 2022, published 2024).
